# Data taken from patent US11542473B2, “Methods and compositions for generating hematopoietic cells” (priority 2016, dated 2023).
# How the values were obtained:
# [1] = test system: hPSC-derived hematopoietic cells (iPSC line RB9-CB1); assay: hPSC-to-hematopoietic differentiation, flow cytometry of HSC-like surface phenotype (Example 2); format: cell-based, human; settings: for HSC-like phenotype: specificity controls for cAMP, day 14; for concentration required to increase HSC-like phenotype as compared to Forskolin: day 14, representative experiment; for frequency of HSC-like cells after inhibition / hematopoietic cell generation efficiency / blood emergence (CD43): inhibition on day 10 and day 12, analysis day 14
# Description: Human iPSC line RB9-CB1 derived from cord blood endothelial cells was cultured on irradiated mouse embryonic fibroblasts (MEFs) in Dulbecco's Modified Eagle Medium:Nutrient Mixture F-12 (DMEM/F12) supplemented with 20% KnockOut-serum replacement (KOSR), 2 mM L-glutamine, 0.1 mM non-essential amino acids, 0.1 mM 2-mercaptoethanol and 10 ng/ml basic fibroblast growth factor, all from Thermo Fischer Scientific Inc. (Waltham, Mass., USA). The cells were incubated in a humidified incubator at […] and 5% CO2.
# Embryoid bodies (EBs) were prepared after incubating the pluripotent stem cell colonies with 2 mg/ml Dispase (Thermo Fischer Scientific Inc.), followed by gentle pipetting. The detached colonies were washed twice with 20% KOSR containing DMEM/F12, before plating in ultra low-adherence suspension culture dishes (Corning Inc., Corning, N.Y., USA) to form EBs for 8 days. During suspension culture, MesoTotal™ HPC/HSC Differentiation System (Primorigen Biosciences, Madison, Wis., USA) was used to specify the EBs towards mesoderm commitment. At day 8, EBs were plated on 0.08 μg/mm2 Matrigel™ (BD Biosciences, Franklin Lakes, N.J., USA) and further differentiation towards hematopoietic cells was carried out till day 14 in MesoTotal medium.
# (§1) Application of fresh medium and treatment with 10 μM Forskolin (Stemgent, Cambridge, Mass., USA), 500 μM IBMX (3-isobutyl-1-methylxanthine, Santa Cruz Biotechnology, Dallas, Tex., USA) was carried out at day 10 and day 12 of differentiation. To inhibit PKA and Epac, 50 μM PKA inhibitor (Rp-8-CPT-cAMPS) and 20 μM Epac inhibitor (ESI-09) (both from BIOLOG Life Science Institute, Bremen, Germany) were used (20 min pretreatment followed by cAMP induction) on day 10 and day 12 of differentiation and the cells were analyzed on day 14. To analyze hemogenic endothelium, PKA and Epac were inhibited on day 6 and day 8 and the cells were analyzed on day 10. The distance between center of an EB and outer edge of its cellular spread was analyzed using ImageJ (developed at the National Institutes of Health, USA). Colony Formation Assay
# [2] = test system: differentiating human ES/iPS cells; assay: hPS-to-blood differentiation, FACS analysis of hematopoietic subsets (Example 1); format: cell-based
# [3] = test system: CXCR4 in hPSC-derived hematopoietic cells; assay: CXCR4 surface expression by flow cytometry; format: cell-based, human; settings: with or without cAMP induction, compared to the control
# Description: as §1
# [4] = test system: adherent endothelial-like cells of plated EBs; assay: Radial spreading of adherent endothelial-like cells from embryoid bodies (ImageJ); format: cell-based, human; settings: in the absence or presence of Forskolin+IBMX
# Description: Embryoid bodies (EBs) were prepared after incubating the pluripotent stem cell colonies with 2 mg/ml Dispase (Thermo Fischer Scientific Inc.), followed by gentle pipetting. The detached colonies were washed twice with 20% KOSR containing DMEM/F12, before plating in ultra low-adherence suspension culture dishes (Corning Inc., Corning, N.Y., USA) to form EBs for 8 days. During suspension culture, MesoTotal™ HPC/HSC Differentiation System (Primorigen Biosciences, Madison, Wis., USA) was used to specify the EBs towards mesoderm commitment. […]
# as §1, with “Colony Formation Assay” left out
# [5] = test system: hemogenic endothelium phenotype cells (CD43-CD34+CXCR4-CD73-Vecad+); assay: Hemogenic endothelium phenotype by flow cytometry; format: cell-based, human; settings: inhibition on day 6 and day 8, analysis day 10; in the absence or presence of Forskolin+IBMX
# Description: as §1
# [6] = test system: hPSC-derived hematopoietic cells; assay: ROS detection with CellROX Deep Red by flow cytometry; format: cell-based, human; settings: day 14; versus control
# Description: as §1
# [7] = test system: hematopoietic cells derived from human ES/iPS cells; assay: Colony forming unit assay in methylcellulose (Example 1); format: cell-based
# Description: CFU potential of hematopoietic cells after the 14 day differentiation assay was assessed by plating 2×10^4 cells in Methocult […] (Stem Cell Technologies) supplemented with human SCF (25 ng/ml), GM-CSF (50 ng/ml), IL3 (25 ng/ml) and Erythropoietin (5 U/ml). Cells were incubated in a humidified incubator at 37° C., 5% CO2 for 14 days and colonies were quantified by bright-field microscopy.
# human cord blood = settings: PGE2-mediated cAMP activation; cited from earlier work
# HSC egress from the BM = settings: administration to mice; cited from earlier work
# [8] = NE treatment (10 μM, 300 μM) at day 10 and 12, analysis day 14
structure (smiles),measurement,setting,value
"C=C[C@@]1(C)CC(=O)[C@@H]2[C@@]3(C)CCCC(C)(C)[C@@H]3[C@H](O)[C@H](OC(C)=O)[C@@]2(C)O1 [1,9-dideoxy Forskolin, 1,9-Dideoxyforskolin]",HSC-like phenotype,[1],cannot induce
"Nc1ncnc2c1nc(Br)n2[C@@H]1O[C@@H]2COP(=O)(O)O[C@H]2[C@H]1O [8-Br-cAMP, 8-bromo-adenosine-3′,5′-cyclic monophosphate]",concentration required to increase HSC-like phenotype as compared to Forskolin,[1],10 fold
same,HSC-like phenotype,[1],upregulated
"Cc1ccc(OCC(O)C(C)NC(C)C)c2c1CCC2 (stereo not shown) [ADRB2 antagonist, ICI118,551]",mediation of the norepinephrine effect through ADRB2,"[2]; addition of specific ADRB2 antagonist (ICI118,551 at 20 μM) to NE-treated cultures",unlikely to be mediated through this receptor
CC(C)(C)c1cc(C(=O)C(C#N)=NNc2cccc(Cl)c2)no1 [Epac inhibitor],CXCR4 expression after Epac inhibition,[3],reduced
same,frequency of HSC-like cells after inhibition,[1],decreased
same,hematopoietic cell generation efficiency / blood emergence (CD43),[1],reduced
same,radial spreading of adherent endothelial-like cells,[4],reduced
same,hemogenic endothelial fraction,[5],decreased
"CC(C)Cn1c(=O)n(C)c(=O)c2[nH]cnc21 [IBMX, 3-isobutyl-1-methylxanthine]","ROS levels in various hematopoietic phenotypes, including the HSC-like cells",[6],significantly lowered
"NC[C@H](O)c1ccc(O)c(O)c1 [NE, Norepinephrine]",colony formation (CFU frequency) in methylcellulose,[7]; hematopoietic cells generated with 300 μM (NE300),significant increase
same,distribution of colony types,[7]; hematopoietic cells generated with NE,not affected
same,HSC-like phenotype in total viable cells,"[2]; 300 μM (NE300) at day 10 and day 12, analysis at day 14",significantly increased
same,frequency of CD34high CD90high endothelial precursors,[2]; NE added at 300 μM,trend for an increase
same,blood fraction (CD43/45+ in total viable),[2]; [8],unchanged
same,progenitor fraction (CD34+ in CD43/45+ blood),[2]; [8],unchanged
same,HSC-like cells in the CD43/45+ blood population,"[2]; NE treatment at day 10 and 12, analysis day 14",specifically and significantly upregulated
"Nc1ncnc2c1nc(Sc1ccc(Cl)cc1)n2[C@@H]1O[C@@H]2COP(O)(=S)O[C@H]2[C@H]1O (stereo partly shown) [PKA inhibitor, Rp-8-CPT-cAMPS]",frequency of HSC-like cells after inhibition,[1],no negative effect
same,hematopoietic cell generation efficiency / blood emergence (CD43),[1],no negative effect
same,radial spreading of adherent endothelial-like cells,[4],did not have any effect
same,hemogenic endothelial fraction,[5],no negative effect
"CCCCC[C@H](O)/C=C/[C@H]1[C@H](O)CC(=O)[C@@H]1C/C=C\CCCC(=O)O [Prostaglandin E2 (PGE2), Prostaglandin E2]",human cord blood engraftment,human cord blood,enhances
"CCCC(=O)Nc1ncnc2c1ncn2[C@@H]1O[C@@H]2COP(=O)(O)O[C@H]2[C@H]1OC(=O)CCC [dibutyryl-cAMP, N6,O2-dibutyrl-adenosine-3′,5′-cyclic monophosphate]",concentration required to increase HSC-like phenotype as compared to Forskolin,[1],10 fold
same,HSC-like phenotype,[1],upregulated
CNC[C@H](O)c1ccc(O)c(O)c1 [epinephrine],HSC egress from the BM,HSC egress from the BM,increased
